How the values were obtained:
Format in all cases: cell-based
human 5-HT2AR = target: T1, human 5-HT2AR (Homo sapiens, UniProt P28223); assay: Fluorometric Imaging Plate Reader (FLIPR) assay, 5-HT2AR; details: functional activity, calcium flux, human 5-HT2AR expressed by CHO-K1 cells; NA: no activity
T1 construct: expressed in transfected cells; host or cells: CHO-K1
Procedure: 1.2.2. Fluorometric Imaging Plate Reader (FLIPR) assay
The FLIPR assay was performed to evaluate the function of synthesized compounds to 5-HT2AR with human 5-HT2AR expressed by CHO-K1 cells. Reference compound for 5-HT2AR was […]
[…] After 15 min add 22.5 µl /well of inducer and calcium flux signal is measured. The IC50 values were calculated by nonlinear regression using a sigmoidal function.

human 5-HT1AR = target: T2, human 5-HT1AR (Homo sapiens, UniProt P08908); assay: Ultra Lance cAMP assay, 5-HT1AR; details: agonistic functional activity, human 5-HT1AR expressed by HEK-293 cells; NA: no activity
T2 construct: expressed in transfected cells; host or cells: HEK-293
T2 sequence (P08908 1-422): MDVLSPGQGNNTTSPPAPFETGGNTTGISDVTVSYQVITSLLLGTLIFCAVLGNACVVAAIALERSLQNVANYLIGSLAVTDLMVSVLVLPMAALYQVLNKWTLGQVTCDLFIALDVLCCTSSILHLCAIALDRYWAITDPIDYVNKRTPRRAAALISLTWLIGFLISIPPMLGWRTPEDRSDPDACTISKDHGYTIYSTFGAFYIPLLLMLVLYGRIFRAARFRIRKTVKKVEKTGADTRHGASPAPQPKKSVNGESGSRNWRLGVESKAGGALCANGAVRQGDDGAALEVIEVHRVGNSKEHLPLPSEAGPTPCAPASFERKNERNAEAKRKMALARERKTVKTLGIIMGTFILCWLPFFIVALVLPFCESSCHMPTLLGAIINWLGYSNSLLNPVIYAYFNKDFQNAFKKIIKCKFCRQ
Procedure: (§1) 1.2 Biological Evaluation
(§2) 1.2.1. Ultra Lance cAMP assay
(§3) The Ultra Lance cAMP assay was performed to evaluate the function of synthesized compounds to D2R and 5-HT1AR with human D2R and 5-HT1AR expressed by HEK-293 cells.
(§4) […] The IC50 values were calculated by nonlinear regression using a sigmoidal function.

human D2R = target: T3, human D2R (Homo sapiens, UniProt P14416); assay: Ultra Lance cAMP assay, D2R; details: functional activity, human D2R expressed by HEK-293 cells; NA: no activity
T3 construct: expressed in transfected cells; host or cells: HEK-293
T3 sequence (P14416 whole entry): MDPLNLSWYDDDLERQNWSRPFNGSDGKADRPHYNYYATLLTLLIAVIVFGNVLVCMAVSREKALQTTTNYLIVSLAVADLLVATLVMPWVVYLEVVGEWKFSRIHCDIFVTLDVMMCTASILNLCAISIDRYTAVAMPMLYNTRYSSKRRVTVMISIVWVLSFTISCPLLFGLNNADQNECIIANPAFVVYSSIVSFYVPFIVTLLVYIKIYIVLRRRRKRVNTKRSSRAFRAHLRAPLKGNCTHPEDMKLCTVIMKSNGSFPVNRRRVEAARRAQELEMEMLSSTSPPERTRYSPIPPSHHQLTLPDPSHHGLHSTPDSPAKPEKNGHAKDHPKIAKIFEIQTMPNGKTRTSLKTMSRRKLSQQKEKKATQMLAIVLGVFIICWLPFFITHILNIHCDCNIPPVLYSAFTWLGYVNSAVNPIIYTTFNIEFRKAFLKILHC
Procedure: as §1, §2, §3, §4

T1 sequence (P28223 whole entry): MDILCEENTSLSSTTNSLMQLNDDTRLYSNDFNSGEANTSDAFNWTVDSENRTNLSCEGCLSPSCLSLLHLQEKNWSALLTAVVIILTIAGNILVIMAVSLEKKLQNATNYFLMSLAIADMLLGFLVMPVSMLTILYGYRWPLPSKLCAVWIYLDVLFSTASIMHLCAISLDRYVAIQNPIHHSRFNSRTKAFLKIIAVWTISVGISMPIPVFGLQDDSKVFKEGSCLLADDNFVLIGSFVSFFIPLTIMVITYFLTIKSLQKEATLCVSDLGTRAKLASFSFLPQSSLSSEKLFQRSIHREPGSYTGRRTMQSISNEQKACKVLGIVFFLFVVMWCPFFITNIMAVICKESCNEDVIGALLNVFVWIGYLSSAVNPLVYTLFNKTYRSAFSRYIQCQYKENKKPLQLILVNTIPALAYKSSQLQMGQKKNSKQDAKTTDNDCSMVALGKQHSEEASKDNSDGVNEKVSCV

CS(=O)(=O)c1ccc(F)c(C(=O)N2CCN(CCCc3c[nH]c4ccc(C#N)cc34)CC2)c1 [Compound 13a]
IC50 (human 5-HT2AR): > 5000 nM | EC50 (human 5-HT1AR): 168 nM

CS(=O)(=O)c1ccc(N2CCOCC2)c(C(=O)N2CCN(CCCc3c[nH]c4ccc(C#N)cc34)CC2)c1 [Compound 13b]
EC50 (human 5-HT1AR): 990 nM

CC(Oc1ccc(S(C)(=O)=O)cc1C(=O)N1CCN(CCCc2c[nH]c3ccc(C#N)cc23)CC1)C(F)(F)F (centres unmarked) [Compound 13c]
IC50 (human 5-HT2AR): 1140 nM | EC50 (human 5-HT1AR): 197 nM

CS(=O)(=O)c1ccc(OCC2CC2)c(C(=O)N2CCN(CCCc3c[nH]c4ccc(C#N)cc34)CC2)c1 [Compound 13d]
IC50 (human 5-HT2AR): 887 nM | EC50 (human 5-HT1AR): 88 nM

CCS(=O)(=O)c1ccc(OCC2CC2)c(C(=O)N2CCN(CCCc3c[nH]c4ccc(C#N)cc34)CC2)c1 [Compound 13e]
IC50 (human D2R): > 5 µM | IC50 (human 5-HT2AR): 1290 nM | EC50 (human 5-HT1AR): 49.2 nM

CNS(=O)(=O)c1ccc(OCC2CC2)c(C(=O)N2CCN(CCCc3c[nH]c4ccc(C#N)cc34)CC2)c1 [Compound 13f]
IC50 (human 5-HT2AR): 1100 nM | EC50 (human 5-HT1AR): 23.6 nM

N#Cc1ccc2[nH]cc(CCCN3CCN(C(=O)c4cc(S(=O)(=O)NCC5CC5)ccc4OCC4CC4)CC3)c2c1 [Compound 13g]
IC50 (human D2R): 4.31 µM | IC50 (human 5-HT2AR): 2280 nM | EC50 (human 5-HT1AR): 5.35 nM

CNS(=O)(=O)c1ccc(OCC(C)C)c(C(=O)N2CCN(CCCc3c[nH]c4ccc(C#N)cc34)CC2)c1 [Compound 13h]
IC50 (human 5-HT2AR): 567 nM | EC50 (human 5-HT1AR): 5.67 nM

CNS(=O)(=O)c1ccc(OCC2COC2)c(C(=O)N2CCN(CCCc3c[nH]c4ccc(C#N)cc34)CC2)c1 [Compound 13i]
IC50 (human 5-HT2AR): 4190 nM | EC50 (human 5-HT1AR): 400 nM

CNS(=O)(=O)c1ccc(OC(C)C)c(C(=O)N2CCN(CCCc3c[nH]c4ccc(C#N)cc34)CC2)c1 [Compound 13j]
5-HT1AR EC50 (human 5-HT1AR): completely lose activity

CCOc1ccc(S(=O)(=O)NC)cc1C(=O)N1CCN(CCCc2c[nH]c3ccc(C#N)cc23)CC1 [Compound 13k]
IC50 (human 5-HT2AR): 1780 nM | EC50 (human 5-HT1AR): 77.5 nM

CNS(=O)(=O)c1ccc(OC2COC2)c(C(=O)N2CCN(CCCc3c[nH]c4ccc(C#N)cc34)CC2)c1 [Compound 13l]
EC50 (human 5-HT1AR): 524 nM

CC(C)COc1ccc(S(=O)(=O)NCC2CC2)cc1C(=O)N1CCN(CCCc2c[nH]c3ccc(C#N)cc23)CC1 [Compound 13m]
IC50 (human D2R): > 5 µM | IC50 (human 5-HT2AR): 1530 nM | EC50 (human 5-HT1AR): 1.01 nM

N#Cc1ccc2[nH]cc(CCCN3CCN(C(=O)c4cc(S(=O)(=O)NCC5CC5)ccc4OCC4COC4)CC3)c2c1 [Compound 13n]
IC50 (human 5-HT2AR): > 5000 nM | EC50 (human 5-HT1AR): 31.6 nM

CC(C)Oc1ccc(S(=O)(=O)NCC2CC2)cc1C(=O)N1CCN(CCCc2c[nH]c3ccc(C#N)cc23)CC1 [Compound 13o, 3-(4-(3-(5-cyano-1H-indol-3-yl)propyl)piperazine-1-carbonyl)-N-(cyclopropylmethyl)-4-isopropoxybenzenesulfonamide]
EC50 (human 5-HT1AR): 22.8 nM

CCOc1ccc(S(=O)(=O)NCC2CC2)cc1C(=O)N1CCN(CCCc2c[nH]c3ccc(C#N)cc23)CC1 [Compound 13p, 3-(4-(3-(5-cyano-1H-indol-3-yl)propyl)piperazine-1-carbonyl)-N-(cyclopropylmethyl)-4-ethoxybenzenesulfonamide]
IC50 (human 5-HT2AR): 4730 nM | EC50 (human 5-HT1AR): 48.2 nM

N#Cc1ccc2[nH]cc(CCCN3CCN(C(=O)c4cc(S(=O)(=O)NCC5CC5)ccc4OC4COC4)CC3)c2c1 [Compound 13q, 3-(4-(3-(5-cyano-1H-indol-3-yl)propyl)piperazine-1-carbonyl)-N-(cyclopropylmethyl)-4-(oxetan-3-yloxy)benzenesulfonamide]
EC50 (human 5-HT1AR): 175 nM

Source: PMC7662226, “Discovery of Novel Indolealkylpiperazine Derivatives as Potent 5-HT1A Receptor Agonists for the Potential Future Treatment of Depression” (Molecules, 2020)
